Experimental findings from patent publication US11384114B2, “Polymorphic forms of an oxysterol and methods of making them” (Warsaw Orthopedic, Inc., priority 2016, dated 2022) are described below.

Where “and” joins values, the source holds several entries; their conditions need not be identical. Equal values may be shown once.

Common to all, as to format: physicochemical
Data set [1] in a line: Karl-Fisher (KF) water determination of isolated solid. The note with it: for KF (water content determined by Karl Fischer water determination method): OXY133 polymorph sample, processing point and temperature differ per item of Table 15; for KF (Wt %) water content: solid isolated from acetone/water slurry at 0-25° C. The text has this:
Further, Table 15 below is a list of OXY133 polymorphs Forms A, B, C, D, E, F, G, H and I identified by a high performance liquid chromatography (HPLC) followed by charged aerosol detector (CAD) method. Table 15 also lists the starting products, the solvent system including solvent and anti-solvent, the temperature at which a polymorph was formed, the water content of the polymorph as determined by the Karl-Fisher (KF) method of water determination, and where available, the yield and purity of the resulting polymorph.

The nature of the next data set: DSC/TGA water loss. The protocol: Differential scanning calorimetry (DSC) and thermo-gravimetric analysis (TGA) were also collected for some of the OXY133 polymorphs. The equipment utilized to collect the DSC/TGA data was a Mettler Toledo DSC 2 equipped with an aluminum 40 μL crimped pan with a pin hole and the ramp rate was 10° C./min. DSC/TGA thermograms identifying several OXY133 polymorphs are illustrated in FIGS. 20-25.

Data set [2] can be described thus: Crystal form stability on vacuum oven drying. The note with it: for Crystal Form (XRPD): solid after drying at 20, 35 or 50 C, solvent system differs per item. The protocol:
2.0 g anhydrous OXY133 was added to 10 mL isopropanol in a 100 mL polyblock reactor. The mixture was heated to 30° C. and then stirred at 30° C. for 45 minutes until the solids were dissolved completely. Acceptable heating temperatures ranged from 25° C. to 35° C. A polish filtration step can be added after dissolving the anhydrous OXY133. The mixture of anhydrous OXY133 and isopropanol was then cooled to 5° C. 20 mL of water was then added to the cooled mixture over 120 minutes at 5° C., resulting in the formation of a precipitate approximately one third of the way through the addition of water. The water addition can also be done in temperature ranges from about 0° C. to about 20° C. with no significant effect on the crystal structure. The resulting mixture of OXY133, isopropanol and water was then stirred at 5° C. for 18 hours. However, it is recommended that the resulting mixture could be mixed for at least 2 hours at 5° C. after the water addition was complete to ensure that all solids were precipitated from the solution. A white solid was collected by rapidly filtering the mixture and then washing the solid with 2.0 mL of an isopropanol:water mixture in a ratio of 1:2 v/v. The filtered and washed solids were then dried in a vacuum oven at 20° C. Acceptable temperatures for drying can range from about 20° C. to about 30° C.

The nature of data set [3]: Stability of the crystal form on stirring in the acetone/water solvent system. The note with it: slurry stirred in acetone/water (Form C at about 20° C.; Form F at about 20° C. or about 5° C.).
[4] abbreviates: isolated solid, lot 2891-28-1, prepared from anhydrous OXY133 in isopropanol/water at 5° C. (Example 6).

As to `CCCCCC[C@](C)(O)[C@H]1CC[C@H]2[C@@H]3C[C@H](O)[C@H]4C[C@@H](O)CC[C@]4(C)[C@H]3CC[C@@]21C.O` [Form A, (3S,5S,6S,8R,9S,10R,13S,14S,17S)-17-((S)-2-hydroxyoctan-2-yl)-10,13-dimethylhexadecahydro-1H-cyclopenta[a]phenanthrene-3,6-diol, monohydrate], the KF in data set [1] (setting [4]) was 4.07%. Moreover, the DSC/TGA in “DSC/TGA water loss” (setting [4]) is listed as 4.76%. Also, the “water loss (DSC/TGA)” value in the data set “DSC/TGA water loss” (ramp rate 10° C./min, listed as OXY133 monohydrate, monohydrate) was 4.57% and 4.00%. For the same molecule, in data set [2] (drying at temperatures above about 20° C. to about 30° C.), the “crystal form change on drying” value is listed as “slow conversion of OXY133 monohydrate to a different, unknown crystal form”.

`CCCCCC[C@](C)(O)[C@H]1CC[C@H]2[C@@H]3C[C@H](O)[C@H]4C[C@@H](O)CC[C@]4(C)[C@H]3CC[C@@]21C` [Form 2891-8-3]: in data set [1], the KF (water content determined by Karl Fischer water determination method) was determined as 3.25% and the “KF (Wt %) water content” value stood at 3.25 Wt %. For the same molecule, the “Crystal Form (XRPD)” value in data set [2] is reported as “Form A”.

Regarding `CCCCCC[C@](C)(O)[C@H]1CC[C@H]2[C@@H]3C[C@H](O)[C@H]4C[C@@H](O)CC[C@]4(C)[C@H]3CC[C@@]21C` [Form C], the “stability of crystal form in acetone/water solvent system” value in data set [3] is recorded as “fairly stable”.

On to `CCCCCC[C@](C)(O)[C@H]1CC[C@H]2[C@@H]3C[C@H](O)[C@H]4C[C@@H](O)CC[C@]4(C)[C@H]3CC[C@@]21C` [Form 2891-9-3], for which, in data set [1], the KF (water content determined by Karl Fischer water determination method) worked out at 3.83% and the “KF (Wt %) water content” value is 3.83 Wt %. In addition, in data set [2], the “Crystal Form (XRPD)” value was “Form A”.

For the molecule `CCCCCC[C@](C)(O)[C@H]1CC[C@H]2[C@@H]3C[C@H](O)[C@H]4C[C@@H](O)CC[C@]4(C)[C@H]3CC[C@@]21C` [Form F], in data set [3], the “stability of crystal form in acetone/water solvent system” value was “somewhat stable”.

Take `CCCCCC[C@](C)(O)[C@H]1CC[C@H]2[C@@H]3C[C@H](O)[C@H]4C[C@@H](O)CC[C@]4(C)[C@H]3CC[C@@]21C` [Form 2891-10-3]: in data set [1], the KF (water content determined by Karl Fischer water determination method) was determined as 4.02% and the “KF (Wt %) water content” value was 4.02 Wt %. The “Crystal Form (XRPD)” value in data set [2] is “Form A”.
